According to patent publication US5631222A, “Endothelin-antagonizing peptide” (Kyowa Hakko Kogyo Co., Ltd., priority 1993, dated 1997):
Positions of bridges follow the written chain, without caps; N, C: chain ends. Non-standard residues stand in square brackets, D forms with d. Residues, ends and D or L forms follow the SMILES beside them. 2Thi = N[C@@H](Cc1cccs1)C(=O)O; Nle = CCCC[C@H](N)C(=O)O; Nva = CCC[C@H](N)C(=O)O; Abu = CC[C@H](N)C(=O)O

biological target: T1, endothelin receptor (Bos taurus, UniProt P28088); test: Endothelin receptor-antagonizing activity: inhibition of 125I-endothelin-1 binding to bovine cerebellum membrane fraction; conditions: 125I-Endothelin-1, bovine cerebellum membrane fraction, 25° C. for 2 hours; read-out: IC50: Concentration causing 50% inhibition of endothelin1 binding
T1 construct: the suspension was used as a membrane fraction liquid; from tissue; host or cells: bovine cerebellum membrane fraction
T1 sequence (P28088 27-441): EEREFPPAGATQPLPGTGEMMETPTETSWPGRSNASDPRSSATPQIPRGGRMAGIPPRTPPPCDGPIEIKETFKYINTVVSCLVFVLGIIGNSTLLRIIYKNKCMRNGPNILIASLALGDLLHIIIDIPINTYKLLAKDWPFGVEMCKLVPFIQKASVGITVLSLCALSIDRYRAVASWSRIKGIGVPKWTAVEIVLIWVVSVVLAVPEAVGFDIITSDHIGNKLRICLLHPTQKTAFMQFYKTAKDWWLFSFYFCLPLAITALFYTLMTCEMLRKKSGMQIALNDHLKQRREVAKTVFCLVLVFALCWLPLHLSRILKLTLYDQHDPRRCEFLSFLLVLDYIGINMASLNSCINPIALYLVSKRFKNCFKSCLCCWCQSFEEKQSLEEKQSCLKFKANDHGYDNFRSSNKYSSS
Procedure: Bovine cerebellum tissue was homogenized at 4° C. by using POLYTRON (type PT10/35, manufactured by Kinematic Gmbh Co.) in a buffer solution A (1 mM NaHCO3, 5 mM ethylenediaminetetraacetic acid, 5 μg/ml leupeptin, 5 μg/ml pepstatin A, 40 μM phenylmethylsulfonyl fluoride, pH 8.3).
The obtained suspension was centrifuged for 10 minutes at 8,000 G and 4° C., and the resulting supernatant was centrifuged for 60 minutes at 40,000 G and 4° C. to obtain pellets. The obtained pellets were suspended in a buffer solution A and again centrifuged for 60 minutes at 40,000 G and 4° C. The resulting solid substance was prepared as a suspension containing 2 mg/ml of protein, and the suspension was used as a membrane fraction liquid. […] These mixtures were incubated at 25° C. for 2 hours, and then filtered with a GF/B glass filter (produced by Whatman Co.). […] The inhibition ratio against endothelin receptor binding activity was calculated according to the following equation:
Inhibition ratio (%)=(C-A/C-B)×100
B: Radioactivity in the presence of unlabelled endothelin-1
C: Radioactivity in the absence of both of the compound shown in Table 2 and unlabelled endothelin-1

Row | Compound | IC50 [nM]
1 | H-GNWHGTAADWVYFAHLSMIW-OH [Compound 46] | 0.8
2 | CCC[C@H](NC(=O)[C@H](Cc1c[nH]cn1)NC(=O)[C@H](C)NC(=O)[C@H](Cc1ccccc1)NC(=O)[C@H](Cc1ccc(O)cc1)NC(=O)[C@@H](NC(=O)[C@H](Cc1c[nH]c2ccccc12)NC(=O)[C@H](CC(=O)O)NC(=O)[C@@H]1CCCN1C(=O)[C@H](C)NC(=O)[C@@H](NC(=O)CNC(=O)[C@H](Cc1c[nH]cn1)NC(=O)[C@H](Cc1c[nH]c2ccccc12)NC(=O)[C@H](CC(N)=O)NC(=O)CN)[C@@H](C)O)C(C)C)C(=O)N[C@H](C(=O)N[C@@H](Cc1cccs1)C(=O)N[C@H](C(=O)N[C@@H](Cc1c[nH]c2ccccc12)C(=O)O)[C@@H](C)CC)[C@@H](C)O [Compound 29, HGlyAsnTrpHisGlyThrAlaProAspTrpValTyrPheAlaHisNvaThrThiIleTrpOH] (H-GNWHGTAPDWVYFAH[Nva]T[2Thi]IW-OH) | 0.37
3 | CC[C@H](C)[C@H](NC(=O)[C@H](CC(C)C)NC(=O)[C@@H](NC(=O)[C@H](CC(C)C)NC(=O)[C@H](Cc1c[nH]cn1)NC(=O)[C@H](C)NC(=O)[C@H](Cc1ccccc1)NC(=O)[C@H](Cc1ccc(O)cc1)NC(=O)[C@@H](NC(=O)[C@H](Cc1c[nH]c2ccccc12)NC(=O)[C@@H]1CSSC[C@H](N)C(=O)N[C@@H](CC(N)=O)C(=O)N[C@@H](Cc2c[nH]c3ccccc23)C(=O)N[C@@H](Cc2c[nH]cn2)C(=O)NCC(=O)N[C@@H]([C@@H](C)O)C(=O)N[C@@H](C)C(=O)N2CCC[C@H]2C(=O)N1)C(C)C)[C@@H](C)O)C(=O)N[C@@H](Cc1c[nH]c2ccccc12)C(=O)O [Compound 37] (H-CNWHGTAPCWVYFAHLTLIW-OH; disulfide 1-9) | 8.7
4 | CCCC[C@H](NC(=O)[C@@H](NC(=O)[C@H](CC(C)C)NC(=O)[C@H](Cc1c[nH]cn1)NC(=O)[C@H](C)NC(=O)[C@H](Cc1ccccc1)NC(=O)[C@H](Cc1ccc(O)cc1)NC(=O)[C@@H](NC(=O)[C@H](Cc1c[nH]c2ccccc12)NC(=O)[C@H](CC(=O)O)NC(=O)[C@@H]1CCCN1C(=O)[C@H](C)NC(=O)[C@@H](NC(=O)CNC(=O)[C@H](Cc1c[nH]cn1)NC(=O)[C@H](Cc1c[nH]c2ccccc12)NC(=O)[C@H](CC(N)=O)NC(=O)CN)[C@@H](C)O)C(C)C)[C@@H](C)O)C(=O)N[C@H](C(=O)N[C@@H](Cc1c[nH]c2ccccc12)C(=O)O)[C@@H](C)CC [Compound 26, HGlyAsnTrpHisGlyThrAlaProAspTrpValTyrPheAlaHisLeuThrNleIleTrpOH] (H-GNWHGTAPDWVYFAHLT[Nle]IW-OH) | 0.63
5 | H-GDWKGTSPDWVYFAHLDIIW-OH [Compound 6, HGlyAspTrpLysGlyThrSerProAspTrpValTyrPheAlaHisLeuAsplleIleTrpOH] | 0.11
6 | H-GNWHGGAPDWVYFAHLDIIW-OH [Compound 3] | 0.064
7 | CC[C@H](C)[C@H](NC(=O)[C@H](Cc1cccs1)NC(=O)[C@@H](NC(=O)[C@H](CC(C)C)NC(=O)[C@H](Cc1c[nH]cn1)NC(=O)[C@H](C)NC(=O)[C@H](Cc1ccccc1)NC(=O)[C@H](Cc1ccc(O)cc1)NC(=O)[C@@H](NC(=O)[C@H](Cc1c[nH]c2ccccc12)NC(=O)[C@@H]1CSSC[C@H](N)C(=O)N[C@@H](CC(=O)O)C(=O)N[C@@H](Cc2c[nH]c3ccccc23)C(=O)N[C@@H](CCCCN)C(=O)NCC(=O)N[C@@H]([C@@H](C)O)C(=O)N[C@@H](CO)C(=O)N2CCC[C@H]2C(=O)N1)C(C)C)[C@@H](C)O)C(=O)N[C@@H](Cc1c[nH]c2ccccc12)C(=O)O [Compound 35] (H-CDWKGTSPCWVYFAHLT[2Thi]IW-OH; disulfide 1-9) | 1.6
8 | H-GNWHGTAPDWVYFAHLEIIW-OH [Compound 43] | 17
9 | H-GNWHGTAPDWPYFAHLDIIW-OH [Compound 47] | 4.2
10 | H-GNWHTTAPDWVYFAHLDIIW-OH [Compound 2, HGlyAsnTrpHisThrThrAlaProAspTrpValTyrPheAlaHisLeuAspIleleTrpOH] | 0.061
11 | CC[C@H](C)[C@H](NC(=O)[C@H](CC(=O)O)NC(=O)[C@H](CC(C)C)NC(=O)[C@H](Cc1c[nH]cn1)NC(=O)[C@H](C)NC(=O)[C@H](Cc1ccccc1)NC(=O)[C@H](Cc1ccc(O)cc1)NC(=O)[C@@H](NC(=O)[C@H](Cc1c[nH]c2ccccc12)NC(=O)[C@@H]1CSSC[C@H](N)C(=O)N[C@@H](CC(N)=O)C(=O)N[C@@H](Cc2c[nH]c3ccccc23)C(=O)N[C@@H](Cc2c[nH]cn2)C(=O)NCC(=O)N[C@@H]([C@@H](C)O)C(=O)N[C@@H](C)C(=O)N2CCC[C@H]2C(=O)N1)C(C)C)C(=O)N[C@H](C(=O)N[C@@H](Cc1c[nH]c2ccccc12)C(=O)O)[C@@H](C)CC [Compound 33] (H-CNWHGTAPCWVYFAHLDIIW-OH; disulfide 1-9) | 0.16
12 | H-GNWHGTAPDWVYFAHLTYIW-OH [Compound 19] | 1.2
13 | CC[C@H](C)[C@H](NC(=O)[C@H](Cc1cccs1)NC(=O)[C@@H](NC(=O)[C@H](CC(C)C)NC(=O)[C@H](Cc1c[nH]cn1)NC(=O)[C@@H](C)NC(=O)[C@H](Cc1ccccc1)NC(=O)[C@H](Cc1ccc(O)cc1)NC(=O)[C@@H](NC(=O)[C@H](Cc1c[nH]c2ccccc12)NC(=O)[C@H](CC(=O)O)NC(=O)[C@@H]1CCCN1C(=O)[C@H](C)NC(=O)[C@@H](NC(=O)CNC(=O)[C@H](Cc1c[nH]cn1)NC(=O)[C@H](Cc1c[nH]c2ccccc12)NC(=O)[C@H](CC(N)=O)NC(=O)CN)[C@@H](C)O)C(C)C)[C@@H](C)O)C(=O)N[C@@H](Cc1c[nH]c2ccccc12)C(=O)O [Compound 27, HGlyAsnTrpHisGlyThrAlaProAspTrpValTyrPheD-AlaHisLeuThrThiIleTrpOH] (H-GNWHGTAPDWVYF[dA]HLT[2Thi]IW-OH) | 4.9
14 | CC[C@@H](C)[C@@H](NC(=O)[C@H](Cc1cccs1)NC(=O)[C@@H](NC(=O)[C@H](CC(C)C)NC(=O)[C@H](Cc1c[nH]cn1)NC(=O)[C@H](C)NC(=O)[C@H](Cc1ccccc1)NC(=O)[C@H](Cc1ccc(O)cc1)NC(=O)[C@@H](NC(=O)[C@H](Cc1c[nH]c2ccccc12)NC(=O)[C@H](CC(=O)O)NC(=O)[C@@H]1CCCN1C(=O)[C@H](C)NC(=O)[C@@H](NC(=O)CNC(=O)[C@H](Cc1c[nH]cn1)NC(=O)[C@H](Cc1c[nH]c2ccccc12)NC(=O)[C@H](CC(N)=O)NC(=O)CN)[C@@H](C)O)C(C)C)[C@@H](C)O)C(=O)N[C@@H](Cc1c[nH]c2ccccc12)C(=O)O [Compound 31, HGlyAsnTrpHisGlyThrAlaProAspTrpValTyrPheAlaHisLeuThrThiD-IleTrpOH] (H-GNWHGTAPDWVYFAHLT[2Thi][dI]W-OH) | 210
15 | H-GNWHGTAPDWVYFAHLNYIW-OH [Compound 20] | 12
16 | CC[C@H](NC(=O)[C@@H](NC(=O)[C@H](CC(C)C)NC(=O)[C@H](Cc1c[nH]cn1)NC(=O)[C@H](C)NC(=O)[C@H](Cc1ccccc1)NC(=O)[C@H](Cc1ccc(O)cc1)NC(=O)[C@@H](NC(=O)[C@H](Cc1c[nH]c2ccccc12)NC(=O)[C@H](CC(=O)O)NC(=O)[C@@H]1CCCN1C(=O)[C@H](C)NC(=O)[C@@H](NC(=O)CNC(=O)[C@H](Cc1c[nH]cn1)NC(=O)[C@H](Cc1c[nH]c2ccccc12)NC(=O)[C@H](CC(N)=O)NC(=O)CN)[C@@H](C)O)C(C)C)[C@@H](C)O)C(=O)N[C@H](C(=O)N[C@@H](Cc1c[nH]c2ccccc12)C(=O)O)[C@@H](C)CC [Compound 15, HGlyAsnTrpHisGlyThrAlaProAspTrpValTyrPheAlaHisLeuThrAbuIleTrpOH] (H-GNWHGTAPDWVYFAHLT[Abu]IW-OH) | 0.11
